In a melting point compilation (Tetko et al.; mined from patent text by program, amines drawn as free bases though some values may be those of a salt):
Residues, ends and D or L forms follow the SMILES beside them. *: point of attachment. Boc = CC(C)(C)OC(=O)*; OBn = c1ccc(CO*)cc1; Bn = c1ccc(C*)cc1

| Compound | melting point [°C] |
| --- | --- |
| CCN(CC)CCN(c1ccc(C(=O)c2ccccc2)cc1)S(C)(=O)=O | 74 to 76 |
| Fc1cccc(F)c1-c1ncc(NCc2ccc(Cl)cc2)nn1 | 200 to 205 |
| NC(C(=O)O)c1cc(O)cc(O)c1[N+](=O)[O-] (configuration not stated) | > 280 |
| CC(C)Cc1cc(OCCc2ccsc2)c2[nH]nc(Nc3nccs3)c2c1 | 150 to 151 |
| CN(C)c1ccc(C=O)c(OCC#N)c1 | 124 to 125 |
| Cc1c(Cc2cccc(C(=O)O)c2)n(S(=O)(=O)c2cccc(C(C)(C)C)c2)c2ccc(C(F)(F)F)cc12 | 194 |
| OCCCCCCCCCCCN1CCCCC1 | 62 to 65 |
| CC(C)(C)OC(=O)NCC(=O)Oc1cc(Cl)c(Cl)cc1Cl | 100 to 103 |
| CCN1CNC(=N[N+](=O)[O-])N(Cc2ccc(Cl)nc2)C1 | 124 to 125 |
| CC(C)(S)[C@@H]1C[C@H](CS)C(=O)N1 (relative stereo) | 159 to 161 |
| CC(C#Cc1ccc(Oc2ccc(F)cc2)s1)N(O)C(N)=O (configuration not stated) | 149 to 150 |
| Oc1cccc(-c2c3ccccc3c(Br)c3sc4ccccc4c23)c1 | 110 to 111 |
| Cc1ccc([N+](=O)[O-])c(C(=O)Nc2ccc(-n3nc(C(F)(F)F)cc3C(F)(F)F)cc2)c1 | 188 to 189 |
| Nc1c(Cl)cnc(OCC(=O)O)c1Cl | 200 to 201 |
| Nc1ccc(OCc2ccccc2)cc1C=C(Br)Br | 67 to 68 |
| CCSC(=S)N1Cc2[nH]c3ccccc3c2CC1CO (configuration not stated) | 74 to 76 |
| Cc1c(SCCCCSCc2ccncc2)ccnc1CNc1cnc2ccccc2c1 | 110 to 113 |
| Cn1c(=N)sc2ccccc21 | 122 |
| Fc1cc2c(cc1CN1CCOCC1)Cc1c(-c3ccsc3)n[nH]c1-2 | 222 |

| Compound | melting point [°C] |
| --- | --- |
| O=C1CSC(=S)N1c1ccc(Cl)c(Cl)c1 | 176 to 178 |
| Cc1nnc(Cl)c(-c2c(F)cc(F)cc2F)c1-c1ccc(Cl)nc1 | 182 to 183 |
| Cc1cc(F)ccc1-c1c(O)c(C)c(-c2ccc(F)cc2)oc1=O | 191 to 193 |
| Clc1ccc2c(c1)C=C(Cn1ccnc1)c1ccsc1S2 | 154 to 156 |
| O=C(O)c1ccc(C23CC4CC(C2)CC(c2ccc(C(=O)O)cc2)(C4)C3)cc1 | 304 to 306 |
| S=C1Nc2ccc(Cl)cc2Nc2ccccc21 | 274 to 275 |
| COc1ccc(C(=O)Nc2ccc(C)cc2)cc1NC(=S)Nc1cc(Cl)cc(Cl)c1 | 178 to 180 |
| CC(C)N(C(=O)n1oc(=O)n(Cc2ccccc2)c1=O)c1ccc(F)cc1 | 95 to 96 |
| CC#CCOc1ccc(S(=O)C(C(=O)NO)c2ccccc2)cc1 (configuration not stated) | 55 |
| CC(C)(C)C(NC(=O)c1ccc(Cl)cc1)NC(=NC#N)Nc1cc(F)ccc1F (configuration not stated) | 196 to 198 |
| Nc1cc(N)c(OCC(F)(F)F)cc1OCC(F)(F)F | 109 |
| COC(=O)c1ccc(-c2nc(-c3ccc(Br)cc3)cs2)cc1 | 206 to 207 |
| CCOC(=O)C(=O)Nc1ccc(Cl)c(C#N)c1 | 182 to 183 |
| CC(C)(C)OC(=O)CN(C(=O)CN(C(=O)CN1C(=O)c2ccccc2C1=O)c1ccccc1)c1ccccc1 | 80 |
| Cc1cc(C)c2c(C)coc2c1Cc1ccc(C(C)C)cc1 | 106 to 107 |
| CN1C(=O)CC[C@]2(C)c3ccc(-c4c(F)c(F)c(F)c(F)c4F)cc3CC[C@@H]12 | 92 to 100 |
| C=C1C[C@@H]2[C@H](CC[C@]3(C)C(=O)CC[C@@H]23)[C@@]2(C)CCC(=O)C=C12 | 155 to 160 |
| CC1(C)N=C(n2nc(O)ccc2=O)c2cc(Br)ccc2O1 | 196 to 198 |
| COc1ccc(-c2cc(=Nc3c(C)cc(C)cc3C)n(C)c(N)n2)cc1OC | 192 to 195 |

| Compound | melting point [°C] |
| --- | --- |
| CCOC(=O)c1cnn(-c2ccc(Oc3ccc(C)cc3O)cc2)c1N | 142 to 144 |
| CCC(=S)c1ccc(C)cc1 | 55 to 56 |
| Oc1cc(Br)cc(I)c1 | 83 to 84 |
| CCOc1c(C(=O)c2ccccc2)cnc2c1cnn2Cc1ccco1 | 70 |
| O=C(O)/C=C/c1c[nH]c2ccccc2c1=O | 242 to 244 |
| Nc1nc(O)c2c(n1)NCC(CCc1cc(C(=O)O)n[nH]1)C2 (configuration not stated) | > 260 |
| Cc1ccccc1N(CCC(=O)O)C(=O)Cl | 112 |
| C#CCc1c(C)nc2c(OCc3ccccc3CO)cccn12 | 137 to 138 |
| CCCCCCCCCCCCCCCCCCC(=O)Nc1ccc(O)cc1 | 138 |
| CC(C)n1nc(-c2c(-c3ccccc3)nn3ccc(OCC(=O)NCCN(C)C)cc23)ccc1=O | 117 to 119 |
| OC(COc1ccc(-c2cc[nH]n2)cc1)CN1CCN(c2ccc(Cl)cc2)CC1 (configuration not stated) | 211 to 212 |
| Cc1cnc(C(=O)c2[nH]c3ccc(Cl)cc3c2CC(=O)O)s1 | 231 to 233 |
| COCOc1ccccc1-c1cc(-c2cccc(CN=[N+]=[N-])c2)c(C#N)c(N)n1 | 99 to 100 |
| CC(C)C1N2C=CC=CC2=CC1(C=C(Br)Br)c1ccc(F)cc1 (configuration not stated) | 134 to 135 |
| O=C(O)c1cn(-c2ccc(F)cc2)c2c(F)c(N3CC4=C(CNC4)C3)c(F)cc2c1=O | 195 to 198 |
| CC1Nc2ccc(-c3ccc(F)c(C#N)c3)cc2C(C)(C)O1 (configuration not stated) | 184 to 186 |
| CCC(=CC(CSc1nnnn1C)=NO)C(C)[N+](=O)[O-] (configuration not stated) | 83 to 84 |
| CC1(C)OC(=O)Nc2ccc(-c3cc(C#N)cc(OC(F)(F)F)c3)cc21 | 227 to 228 |

Continued, values first:

| melting point [°C] | Compound |
| --- | --- |
| 140 to 141 | CS(=O)(=O)NC(=O)CCc1ccc(OC2CCc3cc(Cl)ccc32)cc1 (configuration not stated) |
| 235 to 236 | Cc1nn(C)c2nc(-c3ccncc3)nc(N)c12 |
| 103 to 104 | CCCc1nc(NCc2ccccn2)nc(Nc2cccc(C(C)C)c2)n1 |
| 136 to 137 | CCN1CCCC1CNC(=O)c1cc(S(=O)(=O)NC)cc2c1OCCO2 (configuration not stated) |
| 176 to 177 | O=C(C=Cc1cccc(F)c1)c1cnc2sc3c(n12)CCCCC3 |
| 247 | CCOC(=O)C1=C(Cc2ccccc2)Nc2n[nH]cc2C1c1ccccc1Cl (configuration not stated) |
| 114 to 118 | COc1ccc(N2CCN(C(=O)C(c3ccccc3)n3cnc4[nH]ncc4c3=S)CC2)cc1 (configuration not stated) |
| 208 to 210 | CCOCc1nc2c(N)nc3ccccc3c2n1CCCNS(C)(=O)=O |
| 232 to 234 | Cc1csc(-c2ccc3c(c2)C=C(C(=O)Nc2ccc(CN(C)C4CCOCC4)cc2)CCS3(=O)=O)c1 |
| 80 | Cc1cc(-n2ccnc2)c2cccc(OCc3c(Cl)ccc(S(=O)(=O)N4CCC[C@H]4C(=O)N(C)CCCN(C)C)c3Cl)c2n1 |
| 94 to 97 | CC(C)N1CC(COc2ccc([N+](=O)[O-])c(C=O)c2)OC1=O (configuration not stated) |
| 148 to 151 | CC(=O)NC[C@H]1CN(c2ccc(C3=CCOCC3)c(F)c2)C(=O)O1 |
| 154 | CN(C)CCCNC(=O)[C@@H]1CCCN1S(=O)(=O)c1ccc(Cl)c(COc2cccc3c2NC(C)(C)C=C3n2cncn2)c1Cl |
| 108 | COc1ccccc1CNC(=O)c1ccc2nc(NCc3ccccc3OC)ccc2c1 |
| 151 to 152 | Cn1c(CO)nnc1NCCCOc1cccc(CN2CCCCC2)c1 |
| 78 to 79 | C[C@@](O)(C(=O)N1CCC(C(=O)c2ccc(F)cc2)CC1)C(F)(F)F |
| 129 | CCCCCCCCNC(=O)Nc1ccccc1C(=O)NC1CCN(Cc2ccccc2)CC1 |
| 234 to 236 | CC(=O)Nc1c(Cl)cc2c(=O)c(C(=O)O)cn3c2c1CCC3C (configuration not stated) |
| 235 to 237 | Cc1cc(N2CCN(CCc3ccc(NS(C)(=O)=O)cc3)CC2)ccc1NS(C)(=O)=O |
| 170 to 172 | COc1nc(C)nc(NC(=O)NS(=O)(=O)c2cccnc2OC2CCCC2)n1 |
| 83 to 85 | Cc1cc(C2(C(F)(F)F)CC(Cl)=NO2)ccc1NC(=O)OC(C)(C)C (configuration not stated) |

| melting point [°C] | Compound |
| --- | --- |
| 136 to 138 | O=C(Nc1cccc(F)c1)NN1CC=CCC1 |
| > 250 | COc1ccc2c(c1)nc(O)c1nncn12 |
| 98 to 100 | O=C(CN1CCC(Cc2ccc(F)cc2)CC1)Nc1cccc(NCc2ccccc2)c1 |
| 75 to 90 | COC(=O)c1ccccc1-c1ccc(CNc2nc(Cl)nc3ccccc23)cc1 |
| 164 to 165 | COc1cc(OC)c(N2CCCC2)cc1/C=C/C(=O)c1ccc(S(=O)(=O)Nc2cc(C)on2)cc1 |
| 225 to 226 | CC(C)c1[nH]n(-c2c(Cl)cc(Cl)cc2Cl)c2nc(Cc3ccc(N(C(=O)OC(C)(C)C)C(=O)[C@@H]4CCCN4)cc3)nc(=O)c1-2 |
| 218 to 220 | COC(=O)C1=C(O)c2ccc3ccccc3c2S(=O)(=O)N1 |
| 230 to 232 | CCCn1nc(C2CC2)c(C(=O)O)c1Cc1ccc(-c2ccccc2S(=O)(=O)NC(=O)c2ccccc2)cc1 |
| 146 to 148 | CCCCCCCCCCCn1ncnc1NC(=O)Nc1c(C(C)C)cccc1C(C)C |
| 65 | COC(=O)c1ccc(C(O)c2c(C)c3cc(C(F)(F)F)ccc3n2S(=O)(=O)c2cccc(C(C)(C)C)c2)cc1 (configuration not stated) |
| 178 to 181 | CCCOc1ccc(CCCOc2ccc3c(c2)C=C(C(=O)Nc2ccc(CN(C)C4CCOCC4)cc2)CCS3(=O)=O)cc1 |
| 72 to 73.5 | CCOC(=O)c1c(C(F)(F)F)nc(C(F)(F)Cl)c(C(=O)OC)c1N1CCCC1 |
| 154 to 160 | CC(C)CN(C=NS(=O)(=O)c1c(Cl)nc2ccc(C3CC3)nn12)CC(C)C |
| 283 to 286 | CCCc1cc2nn(Cc3ccc(NC(=O)c4ccccc4S(=O)(=O)O)cc3)c(=O)n2c(C)n1 |
| > 350 | O=c1ccc2cnc(Nc3ccccc3)nc2[nH]1 |
| 177 to 178 | O=c1[nH]c2cc(F)c(NCC3CCc4ccccc4C3)cc2o1 (configuration not stated) |
| 240 | COC(=O)C(=O)Nc1c(-c2ccccc2)c(=O)[nH]c2cc(Cl)ccc12 |
| 52.3 to 53.3 | COc1ccc(C(=O)CC(=O)C(C)(C)C)cc1OC |
| 210 to 211 | CC(C)(C)c1ccc2oc(C(=O)COc3ccc(C(=O)O)cc3)cc2c1 |
| 100 to 103 | CC(C)CC(NC(=O)C(Cc1ccc(OCc2ccccc2)cc1)NC(=O)OC(C)(C)C)C(=O)OCc1ccccc1 (configuration not stated) (Boc-Tyr(Bn)-Leu-OBn; configuration not given here) |
